Measured values as given in ChEMBL document CHEMBL5543134, “Channeling Nicotinamide Phosphoribosyltransferase (NAMPT) to Address Life and Death” (J Med Chem, 2024).

Key:
[1] = test system: A2780; experiment: cells; settings: Homo sapiens, A2780, 72 h
[2] = target: Nicotinamide phosphoribosyltransferase (Homo sapiens, UniProt P43490); experiment: Inhibition of NAMPT (unknown origin) using NAM and PRPP as substrates incubated for 2 hrs in presence of ATP by fluorimetric plate reader assay
[3] = test system: HCT-116; experiment: cells; settings: Homo sapiens, HCT-116, 48 h
[4] = Cmax in Sprague-Dawley rat plasma at 60 mg/kg, ip measured up to 48 hrs by LC-MS/MS analysis; type: ADME, organism-based
[5] = Cmax in ICR mouse at 10 mg/kg, iv by LC-MS/MS analysis; type: ADME, organism-based; settings: in vivo
[6] = test system: HCT-116; experiment: Antitumor activity against human HCT-116 cells assessed as decrease in intracellular NAD level at 30 uM measured after 12 to 24 hrs by absorbance based assay; type: functional; set-up: scale not given: the % may be the effect or the level left; settings: time 12-24 hrs
[7] = target: Nicotinamide phosphoribosyltransferase (Mus musculus, UniProt Q99KQ4); experiment: Inhibition of N-terminal His-tagged mouse NAMPT transformed in Escherichia coli Rosetta cells
Sequence of Nicotinamide phosphoribosyltransferase (Mus musculus, UniProt Q99KQ4) (Q99KQ4 whole entry): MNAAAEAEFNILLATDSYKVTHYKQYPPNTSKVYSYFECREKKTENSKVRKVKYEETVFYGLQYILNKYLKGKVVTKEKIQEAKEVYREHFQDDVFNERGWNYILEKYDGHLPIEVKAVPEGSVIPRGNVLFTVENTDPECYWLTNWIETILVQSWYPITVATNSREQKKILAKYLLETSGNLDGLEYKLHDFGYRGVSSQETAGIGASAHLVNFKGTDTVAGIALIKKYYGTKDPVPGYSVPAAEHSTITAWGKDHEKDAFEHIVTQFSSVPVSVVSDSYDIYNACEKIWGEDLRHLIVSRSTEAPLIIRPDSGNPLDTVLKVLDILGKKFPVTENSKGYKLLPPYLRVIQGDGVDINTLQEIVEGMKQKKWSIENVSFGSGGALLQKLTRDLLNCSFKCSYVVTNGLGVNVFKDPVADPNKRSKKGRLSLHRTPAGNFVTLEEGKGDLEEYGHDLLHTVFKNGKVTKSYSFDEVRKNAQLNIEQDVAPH

Sequence of Nicotinamide phosphoribosyltransferase (Homo sapiens, UniProt P43490) (P43490 whole entry): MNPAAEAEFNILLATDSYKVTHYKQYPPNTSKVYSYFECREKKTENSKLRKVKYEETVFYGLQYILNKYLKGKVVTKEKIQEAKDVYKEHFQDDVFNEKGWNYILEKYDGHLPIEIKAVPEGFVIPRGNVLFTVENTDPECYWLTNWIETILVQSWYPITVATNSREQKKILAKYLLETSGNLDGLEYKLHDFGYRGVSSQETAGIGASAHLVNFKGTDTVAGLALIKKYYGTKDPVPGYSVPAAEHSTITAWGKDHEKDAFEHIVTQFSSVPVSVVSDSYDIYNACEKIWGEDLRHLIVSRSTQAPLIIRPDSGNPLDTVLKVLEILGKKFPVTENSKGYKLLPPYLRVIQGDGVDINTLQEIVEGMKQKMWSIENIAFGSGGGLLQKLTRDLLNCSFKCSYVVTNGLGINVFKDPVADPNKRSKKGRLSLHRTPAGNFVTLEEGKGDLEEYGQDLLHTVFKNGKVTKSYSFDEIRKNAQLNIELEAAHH

Question: Which IC50 [1] does the source give for `O=S(=O)(c1ccc(NC(=S)NCc2ccncc2)cc1)N1CCCCC1` here?
Answer: Its IC50 is over 10 nM.

Question: For `CCOC(=O)c1ccc(NC(=S)NCc2ccncc2)cc1`, which IC50 [1] is on record?
Answer: Its IC50 is 1000 nM.

Question: With `O=C(NCc1ccncc1)Nc1ccc(S(=O)(=O)N2C[C@H]3CC[C@@H](C2)O3)cc1` as the molecule, how does the IC50 [2] read?
Answer: Its IC50 is 279 nM.

Question: Which IC50 [1] does the source give for `CCOC(=O)c1ccc(NC(=O)NCc2ccncc2)cc1` here?
Answer: Its IC50 is 320 nM.

Question: For `CCN(CC)S(=O)(=O)c1ccc(NC(=O)NCc2ccncc2)cc1`, which IC50 [1] is on record?
Answer: The IC50 was 364 nM.

Question: Which IC50 [3] does the source give for `C#CCN(Cc1cc2c(=O)n(C)c(CN3CCN(CCN)CC3)nc2cc1Cl)c1ccc(C(=O)NCc2cccnc2)cc1` here?
Answer: The IC50 was 0.68 nM.

Question: For `Cn1nccc1-c1nc2ccc(NC(=O)NCc3ccncc3)cn2n1`, which IC50 [1] is on record?
Answer: The IC50 was 160 nM.

Question: For `O=C(/C=C/c1cccnc1)NCCCCC1CCN(C(=O)c2ccccc2)CC1` [DAPORINAD], which Cmax [4] is on record?
Answer: The Cmax was 6.7 µM.

Question: And the Cmax [5]?
Answer: Its Cmax is 14 µM.

Question: Which Activity [6] does the source give for `Nc1cc(F)ccc1NC(=O)c1ccc(CNC(=O)/C=C/c2cccnc2)cc1` [TUCIDINOSTAT] here?
Answer: Its Activity is 50%.

Question: Which IC50 [7] does the source give for `CCN(CC)C(=O)c1noc2cc(NC(=O)NCc3cnco3)ccc12` here?
Answer: The IC50 was 1490 nM.
